Assay results: patent publication US20120276200A1, “FORMULATIONS OF QUINOLINONES” (priority 2005, published 2012)

Assay: Hygroscopicity, DVS experiment (moisture induced weight change)
Format: physicochemical
Description: All DVS measurements were carried out at 2.5% relative humidity change per hour.

Moisture induced % weight change (55% RH, listed as Lactate trial 3)	Water uptake in DVS experiment (RH above 90%, not completely reversible)	Hygroscopicity in DVS experiment (below about 80% RH)	Moisture induced % weight change (55% RH, listed as Malate trial 3)	Moisture induced % weight change (95% RH, listed as Malate trial 3)	Compound
0.08%	significant water uptake	not hygroscopic			CC(O)C(=O)O.CN1CCN(c2ccc3nc(-c4c(N)c5c(F)cccc5[nH]c4=O)[nH]c3c2)CC1 [Lactate trial 1, Lactic Acid salt of 4-Amino-5-fluoro-3-[6-(4-methyl-piperazin-1-yl)-1H-benzimidazol-2-yl]-1H-quinolin-2-one]
			0.08%	0.30%	CN1CCN(c2ccc3nc(-c4c(N)c5c(F)cccc5[nH]c4=O)[nH]c3c2)CC1.O=C(O)CC(O)C(=O)O [Malate trial 1]
